Assay results published in US12649737B2, “Compounds and uses thereof” (Foghorn Therapeutics Inc., priority 2020, dated 2026).
pIC50: −log10 of the molar value. Each block holds one compound with its values, some of them ahead of it.

Tests used:
BRM = biological target: T1, BRM (Homo sapiens, UniProt P51531); assay: ATPase catalytic activity assay of BRM (ADP-Glo); assay type: biochemical; details: 30 nM BRM, 400 μM ATP, 20 nM salmon sperm DNA, 1 hour at room temperature
T1 construct: made in house; host or cells: High Five insect cells
Description: (§1) Example 38. Assay for ATPase Catalytic Activity of BRM and BRG-1
(§2) The ADP-Glo™ kinase assay is performed in two steps once the reaction is complete.

BRG-1 = biological target: T2, BRG-1 (Homo sapiens, UniProt P51532); assay: ATPase catalytic activity assay of BRG-1 (ADP-Glo); assay type: biochemical; details: 30 nM BRG-1, 400 μM ATP, 20 nM salmon sperm DNA, 1 hour at room temperature; read-out: BRG1 ATPase: IC50
T2 construct: made in house; host or cells: High Five insect cells
Description: as §1, §2

T1 sequence (P51531 whole entry): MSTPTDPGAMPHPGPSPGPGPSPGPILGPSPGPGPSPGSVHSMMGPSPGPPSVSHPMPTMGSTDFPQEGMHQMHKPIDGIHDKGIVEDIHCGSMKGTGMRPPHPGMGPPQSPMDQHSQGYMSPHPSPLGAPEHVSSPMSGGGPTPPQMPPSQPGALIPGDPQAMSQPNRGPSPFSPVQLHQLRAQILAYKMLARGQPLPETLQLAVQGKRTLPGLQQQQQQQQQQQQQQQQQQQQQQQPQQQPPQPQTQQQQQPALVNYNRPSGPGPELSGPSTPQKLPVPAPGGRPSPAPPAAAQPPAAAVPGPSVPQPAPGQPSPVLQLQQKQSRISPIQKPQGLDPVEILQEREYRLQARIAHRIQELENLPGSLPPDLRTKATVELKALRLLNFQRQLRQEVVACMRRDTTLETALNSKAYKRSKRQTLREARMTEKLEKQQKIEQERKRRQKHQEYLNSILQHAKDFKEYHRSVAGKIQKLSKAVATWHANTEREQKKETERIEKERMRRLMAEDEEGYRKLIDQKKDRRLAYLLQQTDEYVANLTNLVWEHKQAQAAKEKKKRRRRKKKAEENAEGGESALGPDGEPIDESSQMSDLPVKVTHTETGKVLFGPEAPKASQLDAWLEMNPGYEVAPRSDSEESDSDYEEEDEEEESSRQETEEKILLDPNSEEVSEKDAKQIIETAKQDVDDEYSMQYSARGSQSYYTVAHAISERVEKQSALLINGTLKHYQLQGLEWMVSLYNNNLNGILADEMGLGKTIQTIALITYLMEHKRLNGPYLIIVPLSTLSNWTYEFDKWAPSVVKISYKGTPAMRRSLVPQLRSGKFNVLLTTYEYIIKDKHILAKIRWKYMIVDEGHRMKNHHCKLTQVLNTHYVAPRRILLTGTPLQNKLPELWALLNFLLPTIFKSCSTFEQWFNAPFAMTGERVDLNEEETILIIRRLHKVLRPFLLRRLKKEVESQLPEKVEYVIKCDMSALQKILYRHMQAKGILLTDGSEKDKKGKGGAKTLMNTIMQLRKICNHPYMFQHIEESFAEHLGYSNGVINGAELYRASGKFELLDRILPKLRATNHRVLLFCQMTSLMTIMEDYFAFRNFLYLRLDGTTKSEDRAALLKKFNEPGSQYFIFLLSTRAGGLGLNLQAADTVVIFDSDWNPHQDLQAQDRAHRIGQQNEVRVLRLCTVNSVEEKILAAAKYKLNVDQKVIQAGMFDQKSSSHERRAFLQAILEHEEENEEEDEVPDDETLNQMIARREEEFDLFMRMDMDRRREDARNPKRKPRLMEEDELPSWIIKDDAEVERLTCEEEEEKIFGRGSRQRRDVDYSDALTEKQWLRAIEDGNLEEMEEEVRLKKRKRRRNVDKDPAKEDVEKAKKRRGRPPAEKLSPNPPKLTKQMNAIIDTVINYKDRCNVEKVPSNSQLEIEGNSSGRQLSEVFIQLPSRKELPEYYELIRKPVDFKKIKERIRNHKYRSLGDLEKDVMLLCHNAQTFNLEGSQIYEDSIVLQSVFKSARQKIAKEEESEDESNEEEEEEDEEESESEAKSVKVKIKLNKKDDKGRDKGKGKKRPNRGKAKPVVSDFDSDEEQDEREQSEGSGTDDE
T2 sequence (P51532 whole entry): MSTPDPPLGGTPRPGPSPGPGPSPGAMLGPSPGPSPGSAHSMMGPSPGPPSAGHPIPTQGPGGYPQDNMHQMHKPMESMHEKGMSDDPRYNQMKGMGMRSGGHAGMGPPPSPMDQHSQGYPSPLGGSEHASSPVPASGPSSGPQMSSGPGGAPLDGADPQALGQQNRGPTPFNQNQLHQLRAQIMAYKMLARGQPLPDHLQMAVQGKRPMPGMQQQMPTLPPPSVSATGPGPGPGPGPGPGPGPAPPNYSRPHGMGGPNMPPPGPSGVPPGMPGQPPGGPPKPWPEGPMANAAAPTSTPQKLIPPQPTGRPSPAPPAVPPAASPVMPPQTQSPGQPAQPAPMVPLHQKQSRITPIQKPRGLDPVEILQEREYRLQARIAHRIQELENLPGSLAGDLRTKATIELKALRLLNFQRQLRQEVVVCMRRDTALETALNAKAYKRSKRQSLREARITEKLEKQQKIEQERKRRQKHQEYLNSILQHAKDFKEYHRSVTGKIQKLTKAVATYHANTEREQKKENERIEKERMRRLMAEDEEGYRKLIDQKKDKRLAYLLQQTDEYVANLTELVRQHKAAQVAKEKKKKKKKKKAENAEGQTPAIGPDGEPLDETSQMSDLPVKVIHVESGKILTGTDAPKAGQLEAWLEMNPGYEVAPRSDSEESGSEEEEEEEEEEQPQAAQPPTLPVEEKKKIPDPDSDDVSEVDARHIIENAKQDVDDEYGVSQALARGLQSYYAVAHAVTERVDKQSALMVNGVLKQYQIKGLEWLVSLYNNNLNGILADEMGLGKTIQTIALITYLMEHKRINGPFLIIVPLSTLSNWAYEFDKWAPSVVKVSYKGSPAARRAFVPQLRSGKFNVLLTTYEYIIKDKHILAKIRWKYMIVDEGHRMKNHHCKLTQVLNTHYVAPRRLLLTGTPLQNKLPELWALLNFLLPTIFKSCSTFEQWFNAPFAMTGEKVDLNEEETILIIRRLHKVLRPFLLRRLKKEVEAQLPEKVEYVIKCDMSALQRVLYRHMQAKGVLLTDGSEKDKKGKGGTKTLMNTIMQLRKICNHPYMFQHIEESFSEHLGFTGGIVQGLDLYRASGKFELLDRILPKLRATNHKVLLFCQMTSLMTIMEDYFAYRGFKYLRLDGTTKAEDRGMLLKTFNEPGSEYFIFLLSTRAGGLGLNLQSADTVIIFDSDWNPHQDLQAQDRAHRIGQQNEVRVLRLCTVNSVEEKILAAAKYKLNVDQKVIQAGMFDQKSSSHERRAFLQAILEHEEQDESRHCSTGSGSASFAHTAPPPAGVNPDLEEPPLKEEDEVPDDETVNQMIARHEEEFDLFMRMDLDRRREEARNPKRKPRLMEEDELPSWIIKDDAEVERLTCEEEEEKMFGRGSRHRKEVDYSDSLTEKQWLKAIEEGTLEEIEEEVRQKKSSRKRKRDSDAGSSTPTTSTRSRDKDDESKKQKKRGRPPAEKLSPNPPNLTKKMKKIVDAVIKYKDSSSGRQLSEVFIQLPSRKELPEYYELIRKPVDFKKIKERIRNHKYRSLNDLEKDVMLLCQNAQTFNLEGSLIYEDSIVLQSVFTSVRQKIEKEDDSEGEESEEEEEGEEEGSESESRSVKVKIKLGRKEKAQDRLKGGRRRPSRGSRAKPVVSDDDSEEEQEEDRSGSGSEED

pIC50 (BRM): 7.00 to 8.00 | pIC50 (BRG-1): 6.00 to 7.00
SMILES: CS(=O)(=O)n1ccc(C(=O)NCc2cc3nc(-c4cccc(N5CCC5)c4)ccc3cn2)c1 [Compound 64, N-[[2-[3-(azetidin-1-yl)phenyl]-1,6-naphthyridin-7-yl]methyl]-1-methylsulfonyl-pyrrole-3-carboxamide]

pIC50 (BRM): 6.00 to 7.00 | pIC50 (BRG-1): 6.00 to 7.00
SMILES: CS(=O)(=O)n1ccc(C(=O)NCc2cc3nc(-c4cccc(C(F)F)c4)ccc3cn2)c1 [Compound 65]

pIC50 (BRM): < 6.00 | pIC50 (BRG-1): < 6.00
SMILES: CS(=O)(=O)n1ccc(C(=O)NCc2cc3nc(-c4cccc(C#N)c4)ccc3cn2)c1 [Compound 66, N-((2-(3-cyanophenyl)-1,6-naphthyridin-7-yl)methyl)-1-(methylsulfonyl)-1H-pyrrole-3-carboxamide]

pIC50 (BRM): 6.00 to 7.00 | pIC50 (BRG-1): 6.00 to 7.00
SMILES: CS(=O)(=O)n1ccc(C(=O)NCc2cc3nc(-c4ccc5c(c4)CCO5)ccc3cn2)c1 [Compound 67]

pIC50 (BRM): 6.00 to 7.00 | pIC50 (BRG-1): 6.00 to 7.00
SMILES: CS(=O)(=O)n1ccc(C(=O)NCc2cc3nc(-c4ccc5c(c4)OCC5)ccc3cn2)c1 [Compound 68]

pIC50 (BRM): 7.00 to 8.00 | pIC50 (BRG-1): 6.00 to 7.00
SMILES: CN1CCOc2ccc(-c3ccc4cnc(CNC(=O)c5ccn(S(C)(=O)=O)c5)cc4n3)cc21 [Compound 69]

pIC50 (BRM): 6.00 to 7.00 | pIC50 (BRG-1): 6.00 to 7.00
SMILES: CS(=O)(=O)n1ccc(C(=O)NCc2cc3nc(-c4cccc(OC5CC5)c4)ccc3cn2)c1 [Compound 70]

pIC50 (BRM): 7.00 to 8.00 | pIC50 (BRG-1): 6.00 to 7.00
SMILES: Cn1cc(-c2cccc(-c3ccc4cnc(CNC(=O)c5ccn(S(C)(=O)=O)c5)cc4n3)c2)cn1 [Compound 71]

pIC50 (BRM): 6.00 to 7.00 | pIC50 (BRG-1): 6.00 to 7.00
SMILES: CN1CCc2cc(-c3ccc4cnc(CNC(=O)c5ccn(S(C)(=O)=O)c5)cc4n3)ccc21 [Compound 72]

pIC50 (BRM): 6.00 to 7.00 | pIC50 (BRG-1): 6.00 to 7.00
SMILES: CS(=O)(=O)n1ccc(C(=O)NCc2cc3nc(-c4ccccc4)sc3cn2)c1 [Compound 73, 1-methylsulfonyl-N-[(2-phenylthiazolo[5,4-c]pyridin-6-yl)methyl]pyrrole-3-carboxamide]

pIC50 (BRM): 7.00 to 8.00 | pIC50 (BRG-1): 6.00 to 7.00
SMILES: COc1ccccc1-c1ccc2cnc(CNC(=O)c3ccn(S(C)(=O)=O)c3)cc2n1 [Compound 75]

pIC50 (BRM): > 8.00 | pIC50 (BRG-1): 7.00 to 8.00
SMILES: C[C@@H]1CN(c2cccc(-c3ccc4cnc(CNC(=O)c5ccn(S(C)(=O)=O)c5)cc4n3)n2)C[C@H](C)O1 [Compound 76, N-((2-(6-(cis-2,6-dimethylmorpholino)pyridin-2-yl)-1,6-naphthyridin-7-yl)methyl)-1-(methylsulfonyl)-1H-pyrrole-3-carboxamide]

pIC50 (BRM): 7.00 to 8.00 | pIC50 (BRG-1): 7.00 to 8.00
SMILES: C[C@@H]1CN(c2cccc(-c3ccc4cnc(CNC(=O)c5ccn(C(C)(C)C)c5)cc4n3)n2)C[C@H](C)O1 [Compound 77]

pIC50 (BRM): 7.00 to 8.00 | pIC50 (BRG-1): 6.00 to 7.00
SMILES: C[C@@H]1CN(c2cccc(-c3ccc4cnc(CNC(=O)c5ccn(C(C)(C)C)n5)cc4n3)n2)C[C@H](C)O1 [Compound 78]

pIC50 (BRM): 7.00 to 8.00 | pIC50 (BRG-1): 7.00 to 8.00
SMILES: C[C@@H]1CN(c2cccc(-c3ccc4cnc(CNC(=O)c5ccn(C(C)(C)C#N)n5)cc4n3)n2)C[C@H](C)O1 [Compound 79]

pIC50 (BRM): 7.00 to 8.00 | pIC50 (BRG-1): 6.00 to 7.00
SMILES: CS(=O)(=O)n1ccc(C(=O)NCc2cc3nc(-c4cncc(C5CC5)n4)ccc3cn2)c1 [Compound 80, N-[[2-(6-cyclopropylpyrazin-2-yl)-1,6-naphthyridin-7-yl]methyl]-1-methylsulfonyl-pyrrole-3-carboxamide]

pIC50 (BRM): 7.00 to 8.00 | pIC50 (BRG-1): 6.00 to 7.00
SMILES: COC[C@H](NC(=O)c1ccn(S(C)(=O)=O)c1)c1cc2nc(-c3cccc(N4C[C@@H](C)O[C@@H](C)C4)n3)ccc2cn1 [Compound 82]

Second part, the compound before the results:

SMILES: CC(C)(C)n1ccc(C(=O)NCc2nc3ccc(-c4cccc(C#N)c4)cc3[nH]2)c1 [Compound 39]
pIC50 (BRM): 6.00 to 7.00 | pIC50 (BRG-1): 6.00 to 7.00

SMILES: CC(C)(C)n1ccc(C(=O)NCc2nc3ccc(-c4ccc5c(c4)CCO5)cc3[nH]2)c1 [Compound 40]
pIC50 (BRM): 6.00 to 7.00 | pIC50 (BRG-1): 6.00 to 7.00

SMILES: CC(C)(C)n1ccc(C(=O)NCc2nc3ccc(-c4ccc5cnccc5c4)cc3[nH]2)c1 [Compound 41]
pIC50 (BRM): 7.00 to 8.00 | pIC50 (BRG-1): 7.00 to 8.00

SMILES: CC(C)(C)n1ccc(C(=O)NCc2nc3ccc(-c4ccc5scnc5c4)cc3[nH]2)c1 [Compound 42]
pIC50 (BRM): 7.00 to 8.00 | pIC50 (BRG-1): 7.00 to 8.00

SMILES: CC(C)(C)n1ccc(C(=O)NCc2nc3ccc(-c4ccc(C#N)cc4)cc3[nH]2)c1 [Compound 43]
pIC50 (BRM): 6.00 to 7.00 | pIC50 (BRG-1): 6.00 to 7.00

SMILES: COc1ccc2cc(-c3ccc4nc(CNC(=O)c5ccn(C(C)(C)C)c5)[nH]c4c3)ccc2c1 [Compound 44]
pIC50 (BRM): 7.00 to 8.00 | pIC50 (BRG-1): 7.00 to 8.00

SMILES: CC(C)(C)n1ccc(C(=O)NCc2nc3ccc(-c4ccc5c(c4)OCC5)cc3[nH]2)c1 [Compound 45]
pIC50 (BRM): 7.00 to 8.00 | pIC50 (BRG-1): 6.00 to 7.00

SMILES: CC(C)(C)OCc1cccc(-c2ccc3nc(CNC(=O)c4ccn(C(C)(C)C)c4)[nH]c3c2)c1 [Compound 46]
pIC50 (BRM): 7.00 to 8.00 | pIC50 (BRG-1): 6.00 to 7.00

SMILES: CC(C)(C)n1ccc(C(=O)NCc2nc3ccc(-c4cnn5ccccc45)cc3[nH]2)c1 [Compound 47]
pIC50 (BRM): 7.00 to 8.00 | pIC50 (BRG-1): 7.00 to 8.00

SMILES: Cn1ncc2c(-c3ccc4nc(CNC(=O)c5ccn(C(C)(C)C)c5)[nH]c4c3)cccc21 [Compound 48]
pIC50 (BRM): 7.00 to 8.00 | pIC50 (BRG-1): 7.00 to 8.00

SMILES: Cc1nn(C)c2ccc(-c3ccc4nc(CNC(=O)c5ccn(C(C)(C)C)c5)[nH]c4c3)cc12 [Compound 49]
pIC50 (BRM): 7.00 to 8.00 | pIC50 (BRG-1): 7.00 to 8.00

SMILES: Cc1nc2cc(-c3ccc4nc(CNC(=O)c5ccn(C(C)(C)C)c5)[nH]c4c3)ccc2s1 [Compound 50]
pIC50 (BRM): 7.00 to 8.00 | pIC50 (BRG-1): 6.00 to 7.00

SMILES: CC(C)(C)n1ccc(C(=O)NCc2nc3ccc(-c4cccc5ccncc45)cc3[nH]2)c1 [Compound 51]
pIC50 (BRM): 7.00 to 8.00 | pIC50 (BRG-1): 6.00 to 7.00

SMILES: Cc1ccc2ccc(-c3ccc4nc(CNC(=O)c5ccn(C(C)(C)C)c5)[nH]c4c3)cc2n1 [Compound 52]
pIC50 (BRM): 7.00 to 8.00 | pIC50 (BRG-1): 7.00 to 8.00

SMILES: CC(C)(C)n1ccc(C(=O)NCc2nc3ccc(-c4ccc(CC#N)cc4)cc3[nH]2)c1 [Compound 53]
pIC50 (BRM): 6.00 to 7.00 | pIC50 (BRG-1): 6.00 to 7.00

SMILES: CC(C)(C)n1ccc(C(=O)NCc2nc3ccc(-c4ccc(-n5cccn5)cc4)cc3[nH]2)c1 [Compound 54]
pIC50 (BRM): 6.00 to 7.00 | pIC50 (BRG-1): 6.00 to 7.00

SMILES: CC(C)(C)n1ccc(C(=O)NCc2nc3ccc(-c4ccc(N5CCOCC5)nc4)cc3[nH]2)c1 [Compound 55]
pIC50 (BRM): 6.00 to 7.00 | pIC50 (BRG-1): 6.00 to 7.00

SMILES: CN(C)c1ncc(-c2ccc3nc(CNC(=O)c4ccn(C(C)(C)C)c4)[nH]c3c2)cn1 [Compound 56]
pIC50 (BRM): 7.00 to 8.00 | pIC50 (BRG-1): 7.00 to 8.00

SMILES: Cc1ccc2cc(-c3ccc4nc(CNC(=O)c5ccn(C(C)(C)C)c5)[nH]c4c3)ccc2n1 [Compound 57]
pIC50 (BRM): 7.00 to 8.00 | pIC50 (BRG-1): 7.00 to 8.00

SMILES: CC(C)(C)n1ccc(C(=O)NCc2nc3ccc(-c4ccc5c(c4)OCO5)cc3[nH]2)c1 [Compound 58]
pIC50 (BRM): 7.00 to 8.00 | pIC50 (BRG-1): 6.00 to 7.00

SMILES: COCCOc1ccc(-c2ccc3nc(CNC(=O)c4ccn(C(C)(C)C)c4)[nH]c3c2)cc1 [Compound 59]
pIC50 (BRM): 6.00 to 7.00 | pIC50 (BRG-1): 6.00 to 7.00

SMILES: COc1ncc(-c2ccc3nc(CNC(=O)c4ccn(C(C)(C)C)c4)[nH]c3c2)cc1Cl [Compound 60]
pIC50 (BRM): 7.00 to 8.00 | pIC50 (BRG-1): 6.00 to 7.00

SMILES: CS(=O)(=O)n1ccc(C(=O)NCc2cc3nc(-c4ccccc4)ccc3cn2)c1 [Compound 61, 1-(methylsulfonyl)-N-((2-phenyl-1,6-naphthyridin-7-yl)methyl)-1H-pyrrole-3-carboxamide]
pIC50 (BRM): 6.00 to 7.00 | pIC50 (BRG-1): 6.00 to 7.00

SMILES: COc1cccc(-c2ccc3cnc(CNC(=O)c4ccn(S(C)(=O)=O)c4)cc3n2)c1 [Compound 62]
pIC50 (BRM): 6.00 to 7.00 | pIC50 (BRG-1): 6.00 to 7.00

SMILES: CS(=O)(=O)n1ccc(C(=O)NCc2cc3nc(-c4ccc(N5CCC5)cc4)ccc3cn2)c1 [Compound 63]
pIC50 (BRM): 6.00 to 7.00 | pIC50 (BRG-1): 6.00 to 7.00
